Experimental data reported in patent US11339203B2, “Antitumor peptide and use thereof” (TOAGOSEI CO., LTD., priority 2018, dated 2022).
Where no end group is shown, it is not given here.

How the values were obtained:
[1] = system: normal human mammary epithelial cells (MCF-12F); assay: in vitro; assay type: cell-based; details: each tumor cell line (CAKI2, PC-3, A2058, H2444, A549) versus MCF-12F; result in words
Protocol: (§1) CAKI2 cells were cultured and adjusted to cell count of about 5×10^3 cells per single well of 96-well plate. The amount of medium at this time was made to be 100 μL per well. Next, the 96-well plate was arranged in a CO2 incubator and incubated for about 1 day (21 hours to 24 hours) under conditions of 37° C. and 5% CO2. Subsequently, peptide-containing test media were respectively prepared for each concentration so that the concentration of each sample peptide targeted for evaluation was 12.5 μM and 25 μM followed by supplying to the wells in which the cells targeted for evaluation were cultured (namely, the wells following the above-mentioned incubation) so that the amount of media was 90 μL per well. The 96-well plate was then returned to CO2 incubator followed by incubating for 48 hours under conditions of 37° C. and 5% CO2. The number of wells (n) at each concentration in each peptide addition test group was set to 3. Thus, the values of the results indicated in the following table are the average values of the results respectively obtained for 3 test wells. Cell viability (%) was determined in the manner described below. […] Following completion of incubation, cell viability (%) was evaluated using a colorimetric method consisting of recovering the cell culture liquid containing the above-mentioned reagent together with measuring absorbance at wavelength of 450 nm based on reduction of tetrazolium salt (value corrected for absorbance at a wavelength of 650 nm: A450 to A650). More specifically, the cell viability (%) of each test cell line was calculated from the measured absorbance as a relative value based on cell viability of 100% for the measured value (measured absorbance) of the comparison test group that underwent incubation for 48 hours as described above in only medium not containing peptide. Antitumor activity was evaluated for Sample 2 in above-mentioned Test Example 1 targeted at multiple types of human-derived cultured tumor cells. […]

in vitro = assay type: cell-based, human; details: human
Protocol: as §1

FIGNLALSDLLAGVAYTANLLLKKRTLRKNDRKKR-NH2 [Sample 2]
antitumor activity against tumor cells in comparison with normal cells [1]: more potent antitumor activity
viability at 48 h, 12.5 μM (in vitro): 59.6%
viability at 48 h, 25 μM (in vitro): 13.8%
